# Measured values from ChEMBL document CHEMBL1201862, “PubChem BioAssay data set” (2004).
# Activity calls are given as the source filed them.
# Tests used:
# Caspase-6 = target: T1, Caspase-6 (Homo sapiens, UniProt P55212); test: human caspase-6 inhibitors, dose response, biochemical, VEID-R110 fluorescence, cherry-pick (AID 720632)
# T1 sequence (P55212 whole entry): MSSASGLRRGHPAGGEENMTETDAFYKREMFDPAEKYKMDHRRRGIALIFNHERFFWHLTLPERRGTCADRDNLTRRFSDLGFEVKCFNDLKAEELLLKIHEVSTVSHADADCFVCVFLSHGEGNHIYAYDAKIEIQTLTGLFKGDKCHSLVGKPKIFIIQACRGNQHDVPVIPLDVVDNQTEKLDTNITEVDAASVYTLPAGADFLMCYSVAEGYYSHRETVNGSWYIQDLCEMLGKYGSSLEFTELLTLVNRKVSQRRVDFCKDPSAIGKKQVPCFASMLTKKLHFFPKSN
# [1] = target: T2, Replicative DNA helicase DnaB (Mycobacterium tuberculosis, UniProt P9WMR3); test: DnaB intein splicing inhibitors, dose response, biochemical, cell-free fluorescence (AID 449749); format: functional
# T2 sequence (P9WMR3 whole entry): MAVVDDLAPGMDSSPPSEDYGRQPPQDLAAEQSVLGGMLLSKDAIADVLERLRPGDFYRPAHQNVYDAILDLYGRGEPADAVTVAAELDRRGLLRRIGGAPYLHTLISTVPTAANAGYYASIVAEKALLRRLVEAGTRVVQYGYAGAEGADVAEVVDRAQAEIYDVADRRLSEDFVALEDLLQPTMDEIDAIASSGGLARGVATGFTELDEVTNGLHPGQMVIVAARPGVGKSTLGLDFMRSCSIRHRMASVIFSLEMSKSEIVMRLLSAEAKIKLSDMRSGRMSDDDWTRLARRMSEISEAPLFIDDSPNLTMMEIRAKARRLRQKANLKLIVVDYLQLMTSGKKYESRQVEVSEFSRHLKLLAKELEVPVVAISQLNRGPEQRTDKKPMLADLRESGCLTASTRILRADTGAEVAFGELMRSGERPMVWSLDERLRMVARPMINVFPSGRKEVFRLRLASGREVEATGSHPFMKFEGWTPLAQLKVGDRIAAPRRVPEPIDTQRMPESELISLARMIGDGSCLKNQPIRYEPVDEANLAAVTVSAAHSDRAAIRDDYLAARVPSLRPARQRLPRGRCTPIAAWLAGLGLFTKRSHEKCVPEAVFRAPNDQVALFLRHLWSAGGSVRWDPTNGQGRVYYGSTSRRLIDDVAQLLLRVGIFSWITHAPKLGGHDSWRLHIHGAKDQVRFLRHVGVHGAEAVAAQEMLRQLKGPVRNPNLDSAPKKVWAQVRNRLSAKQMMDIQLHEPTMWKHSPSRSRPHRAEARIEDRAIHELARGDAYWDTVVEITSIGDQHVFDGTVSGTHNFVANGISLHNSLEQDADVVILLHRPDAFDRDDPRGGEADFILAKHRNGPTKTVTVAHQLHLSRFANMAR
# [2] = Luminescence-based cell-based high throughput dose response assay to identify activators of the DAF-12 from the parasite S. stercoralis (ssDAF-12).; format: functional
# Protein RecA = target: T3, Protein RecA (Mycobacterium tuberculosis, UniProt P9WHJ3); test: Fluorescence Cell-Free Homogeneous Dose Retest to Identify Inhibitors of RecA-Intein Splicing Activity. [Related pubchem assays (depositor defined):AID2097, AID2223, AID489010, AID492950]; format: functional
# T3 sequence (P9WHJ3 whole entry): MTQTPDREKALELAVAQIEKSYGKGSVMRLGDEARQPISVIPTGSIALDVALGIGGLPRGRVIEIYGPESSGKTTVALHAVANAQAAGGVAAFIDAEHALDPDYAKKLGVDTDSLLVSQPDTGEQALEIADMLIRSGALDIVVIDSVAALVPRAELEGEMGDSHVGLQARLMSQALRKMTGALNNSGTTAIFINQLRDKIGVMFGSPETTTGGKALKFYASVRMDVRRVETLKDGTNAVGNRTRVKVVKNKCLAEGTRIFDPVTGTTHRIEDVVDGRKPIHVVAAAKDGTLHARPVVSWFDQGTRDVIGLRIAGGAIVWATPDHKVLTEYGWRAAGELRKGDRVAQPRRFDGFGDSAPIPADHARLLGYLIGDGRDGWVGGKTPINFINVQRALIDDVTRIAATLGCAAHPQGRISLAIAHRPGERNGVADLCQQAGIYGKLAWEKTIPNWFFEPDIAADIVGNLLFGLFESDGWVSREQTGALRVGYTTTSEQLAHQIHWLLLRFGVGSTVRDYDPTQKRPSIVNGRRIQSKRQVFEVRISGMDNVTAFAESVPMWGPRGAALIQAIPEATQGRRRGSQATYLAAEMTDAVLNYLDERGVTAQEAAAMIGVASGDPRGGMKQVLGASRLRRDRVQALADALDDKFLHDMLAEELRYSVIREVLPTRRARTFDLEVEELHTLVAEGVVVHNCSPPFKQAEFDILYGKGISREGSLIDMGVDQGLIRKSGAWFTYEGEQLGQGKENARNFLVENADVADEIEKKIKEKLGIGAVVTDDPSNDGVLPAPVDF
# Caspase-9 = Caspase-9 (Homo sapiens, UniProt P55211); test: caspase-9 enzyme inhibition, dose response, selectivity assay for caspase-6 inhibitor project, biochemical, fluorescence, plate reader, cherry-picked samples (AID 743293)
# Caspase-9, sequence (P55211 1-315 limits assumed): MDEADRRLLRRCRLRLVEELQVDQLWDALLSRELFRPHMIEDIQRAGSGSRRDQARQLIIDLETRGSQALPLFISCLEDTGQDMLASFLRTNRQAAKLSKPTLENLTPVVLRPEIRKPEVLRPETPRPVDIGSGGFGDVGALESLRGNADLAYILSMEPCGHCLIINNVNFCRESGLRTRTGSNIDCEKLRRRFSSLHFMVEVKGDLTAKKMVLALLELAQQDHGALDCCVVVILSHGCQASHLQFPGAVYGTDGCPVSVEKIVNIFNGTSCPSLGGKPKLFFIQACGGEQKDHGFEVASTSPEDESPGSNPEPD
# Caspase-9, sequence (P55211 331-416 limits assumed): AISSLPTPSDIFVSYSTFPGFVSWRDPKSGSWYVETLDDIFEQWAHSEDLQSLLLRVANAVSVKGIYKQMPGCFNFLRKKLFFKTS
# Caspase-8 = Caspase-8 (Homo sapiens, UniProt Q14790); test: caspase-8 inhibition counter-screen, dose response, selectivity assay for caspase-6 inhibitor project, biochemical, Z-IETD-R110 fluorescence, cherry-picked samples (AID 743294)
# Caspase-8, sequence (Q14790 217-374 limits assumed): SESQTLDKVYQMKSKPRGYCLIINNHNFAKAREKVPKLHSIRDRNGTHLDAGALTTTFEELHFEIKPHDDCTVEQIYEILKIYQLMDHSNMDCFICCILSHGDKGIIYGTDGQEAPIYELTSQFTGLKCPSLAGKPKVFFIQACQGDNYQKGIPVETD
# Caspase-8, sequence (Q14790 385-479 limits assumed): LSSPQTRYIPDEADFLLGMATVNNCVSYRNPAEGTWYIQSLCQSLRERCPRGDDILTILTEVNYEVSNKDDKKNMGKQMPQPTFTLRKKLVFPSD
# [3] = target: T4, Mannose-6-phosphate isomerase (Homo sapiens, UniProt P34949); test: human PMI inhibitors, high substrate, primary screen, biochemical, fluorescence intensity, high mannose 6-phosphate (AID 1220)
# T4 sequence (P34949 whole entry): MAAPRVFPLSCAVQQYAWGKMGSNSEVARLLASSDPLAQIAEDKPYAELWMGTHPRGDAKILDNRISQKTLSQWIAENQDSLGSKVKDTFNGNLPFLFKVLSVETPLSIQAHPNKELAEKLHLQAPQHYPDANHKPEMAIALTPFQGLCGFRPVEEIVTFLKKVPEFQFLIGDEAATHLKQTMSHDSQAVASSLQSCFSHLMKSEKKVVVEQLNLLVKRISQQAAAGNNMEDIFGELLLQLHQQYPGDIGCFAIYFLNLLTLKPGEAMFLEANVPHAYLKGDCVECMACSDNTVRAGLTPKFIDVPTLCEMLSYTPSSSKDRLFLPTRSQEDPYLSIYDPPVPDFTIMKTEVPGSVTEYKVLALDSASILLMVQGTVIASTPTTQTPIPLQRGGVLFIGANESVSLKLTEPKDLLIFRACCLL
# [4] = target: T5, Oxysterols receptor LXR-beta (Homo sapiens, UniProt P55055); test: LXR agonists, Gal4 luciferase reporter, dose response, counter-screen for ssDAF-12 agonist project, cell-based, luminescence, HEK293, S. stercoralis campaign (AID 720737); format: functional; settings: read-out: IC50 (the source's name)
# T5 sequence (P55055 whole entry): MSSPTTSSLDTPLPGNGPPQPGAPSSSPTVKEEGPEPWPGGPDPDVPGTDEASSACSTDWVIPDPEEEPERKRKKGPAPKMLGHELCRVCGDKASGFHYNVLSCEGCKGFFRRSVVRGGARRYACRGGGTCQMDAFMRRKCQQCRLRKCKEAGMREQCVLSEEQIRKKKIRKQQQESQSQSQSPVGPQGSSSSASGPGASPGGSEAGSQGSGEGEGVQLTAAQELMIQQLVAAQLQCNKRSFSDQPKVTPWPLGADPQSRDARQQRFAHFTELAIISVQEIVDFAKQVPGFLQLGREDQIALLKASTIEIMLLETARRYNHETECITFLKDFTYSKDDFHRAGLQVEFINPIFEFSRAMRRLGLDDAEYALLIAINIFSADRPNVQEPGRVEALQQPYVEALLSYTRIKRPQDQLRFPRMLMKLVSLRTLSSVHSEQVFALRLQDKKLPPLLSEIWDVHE
# [5] = target: T6, Low molecular weight phosphotyrosine protein phosphatase (Homo sapiens, UniProt P24666); test: LMPTP phosphatase inhibitors, dose response, biochemical, OMFP substrate, fluorescence intensity, set 2 (AID 743307); format: functional
# T6 sequence (P24666 whole entry): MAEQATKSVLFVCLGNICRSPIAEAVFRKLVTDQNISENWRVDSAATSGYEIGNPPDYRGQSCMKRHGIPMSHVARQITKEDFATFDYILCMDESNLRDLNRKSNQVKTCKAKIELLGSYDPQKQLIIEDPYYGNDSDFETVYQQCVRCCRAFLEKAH
# [6] = target: T6, Low molecular weight phosphotyrosine protein phosphatase; test: LMPTP phosphatase inhibitors, colorimetric pNPP readout, dose response, orthogonal assay, biochemical, absorbance, pNPP substrate, LMPTP-A isoform, set 2 (AID 743308); format: functional
# [7] = P. falciparum late gametocyte killing, dose response, luminescence (AID 1117278); format: functional, cell-based;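 note: gametocytes exposed to compound for 24 hours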
# [8] = Jurkat T cell cytotoxicity, dose response, cytotoxicity control for P. falciparum gametocyte viability project, luminescence (AID 1117277); format: functional, cell-based;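 note: potency reflects loss of cellular ATP meaning fewer viable cells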
# [9] = Artemis endonuclease inhibitor potency, dose response, biochemical, fluorescence intensity (AID 720701); format: functional;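 note: Artemis endonuclease enzyme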
# [10] = target: RNA-editing ligase 1, mitochondrial (Trypanosoma brucei brucei, UniProt P86926); test: TbREL1 ligase inhibitors, dose response, biochemical, fluorescence, Trypanosoma brucei (AID 1117295); format: functional
# RNA-editing ligase 1, mitochondrial, sequence (P86926 whole entry): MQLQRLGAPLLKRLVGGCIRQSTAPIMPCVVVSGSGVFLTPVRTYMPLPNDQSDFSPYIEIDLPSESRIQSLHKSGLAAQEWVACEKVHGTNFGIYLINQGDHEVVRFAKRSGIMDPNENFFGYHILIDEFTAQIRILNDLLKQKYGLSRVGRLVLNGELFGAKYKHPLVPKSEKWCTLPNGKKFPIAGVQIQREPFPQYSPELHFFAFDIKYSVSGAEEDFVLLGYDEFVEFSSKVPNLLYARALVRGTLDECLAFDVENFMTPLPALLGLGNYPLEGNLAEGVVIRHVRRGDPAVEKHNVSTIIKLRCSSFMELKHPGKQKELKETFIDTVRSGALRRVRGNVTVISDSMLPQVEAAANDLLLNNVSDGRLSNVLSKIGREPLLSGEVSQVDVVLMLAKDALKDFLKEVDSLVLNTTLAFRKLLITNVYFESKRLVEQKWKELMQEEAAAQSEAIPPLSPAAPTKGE
# [11] = target: Voltage-gated inwardly rectifying potassium channel KCNH2 (Homo sapiens, UniProt Q12809); test: hERG protection from proarrhythmic block, potency, dose response, cell-based, thallium flux (AID 2121); format: ADME
# Voltage-gated inwardly rectifying potassium channel KCNH2, sequence (Q12809 whole entry): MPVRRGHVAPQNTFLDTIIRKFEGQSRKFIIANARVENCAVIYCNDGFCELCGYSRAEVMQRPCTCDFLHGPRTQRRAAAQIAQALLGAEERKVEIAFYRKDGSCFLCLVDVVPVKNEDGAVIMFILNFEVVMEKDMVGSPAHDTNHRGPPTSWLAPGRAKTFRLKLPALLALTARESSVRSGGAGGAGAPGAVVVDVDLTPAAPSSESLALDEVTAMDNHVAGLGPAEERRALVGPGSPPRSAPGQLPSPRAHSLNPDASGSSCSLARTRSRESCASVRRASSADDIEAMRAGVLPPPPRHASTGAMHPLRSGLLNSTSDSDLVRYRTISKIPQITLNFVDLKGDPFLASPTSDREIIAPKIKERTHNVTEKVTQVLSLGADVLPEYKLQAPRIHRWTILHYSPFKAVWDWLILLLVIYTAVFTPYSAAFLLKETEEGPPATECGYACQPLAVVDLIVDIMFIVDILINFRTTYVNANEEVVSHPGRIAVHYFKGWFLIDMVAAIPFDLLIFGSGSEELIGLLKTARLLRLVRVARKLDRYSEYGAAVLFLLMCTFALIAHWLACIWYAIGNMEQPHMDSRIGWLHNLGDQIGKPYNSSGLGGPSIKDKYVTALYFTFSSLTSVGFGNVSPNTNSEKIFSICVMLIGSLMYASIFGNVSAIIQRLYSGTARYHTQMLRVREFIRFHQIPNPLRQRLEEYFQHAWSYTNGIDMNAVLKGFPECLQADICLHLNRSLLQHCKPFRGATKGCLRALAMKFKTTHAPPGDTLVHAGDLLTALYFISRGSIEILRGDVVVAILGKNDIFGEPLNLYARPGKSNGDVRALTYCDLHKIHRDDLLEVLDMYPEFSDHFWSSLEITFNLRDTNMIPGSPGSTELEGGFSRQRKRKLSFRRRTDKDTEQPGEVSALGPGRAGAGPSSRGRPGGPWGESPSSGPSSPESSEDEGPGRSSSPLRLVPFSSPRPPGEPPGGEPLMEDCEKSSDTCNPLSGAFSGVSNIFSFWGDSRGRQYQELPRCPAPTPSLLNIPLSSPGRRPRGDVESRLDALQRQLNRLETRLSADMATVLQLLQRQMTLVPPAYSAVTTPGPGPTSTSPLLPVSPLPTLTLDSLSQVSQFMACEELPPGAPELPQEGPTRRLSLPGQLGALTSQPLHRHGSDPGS
# [12] = inhibitors of Vif binding to APOBEC3G peptide, primary screen, biochemical, TR-FRET, GST-Vif 1-94, biotin-A3G peptide, dose response retest (AID 1117319); format: functional;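 note: TR-FRET signal of purified GST-Vif binding a biotinylated A3G peptide; inhibitors lower the FRET signal by blocking Vif and A3G binding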
# [13] = target: FAD-linked sulfhydryl oxidase ALR (Homo sapiens, UniProt P55789); test: inhibitors of human ALR sulfhydryl oxidase, dose response, biochemical, H2O2 detection, luminescence, cherry-pick (AID 493248)
# FAD-linked sulfhydryl oxidase ALR, sequence (P55789 whole entry): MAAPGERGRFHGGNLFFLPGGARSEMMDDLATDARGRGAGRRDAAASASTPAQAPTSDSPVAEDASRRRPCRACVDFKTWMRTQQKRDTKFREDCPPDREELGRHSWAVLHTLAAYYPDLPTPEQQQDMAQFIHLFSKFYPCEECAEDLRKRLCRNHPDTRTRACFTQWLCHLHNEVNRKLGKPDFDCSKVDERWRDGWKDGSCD
# [14] = target: T7, Rac GTPase-activating protein 1 (Homo sapiens, UniProt Q9H0H5); test: MgcRacGAP GTPase-activating activity inhibitors, confirmation, biochemical, ADP Hunter fluorescence, primary and confirmatory (AID 624330); format: functional
# T7 sequence (Q9H0H5 whole entry): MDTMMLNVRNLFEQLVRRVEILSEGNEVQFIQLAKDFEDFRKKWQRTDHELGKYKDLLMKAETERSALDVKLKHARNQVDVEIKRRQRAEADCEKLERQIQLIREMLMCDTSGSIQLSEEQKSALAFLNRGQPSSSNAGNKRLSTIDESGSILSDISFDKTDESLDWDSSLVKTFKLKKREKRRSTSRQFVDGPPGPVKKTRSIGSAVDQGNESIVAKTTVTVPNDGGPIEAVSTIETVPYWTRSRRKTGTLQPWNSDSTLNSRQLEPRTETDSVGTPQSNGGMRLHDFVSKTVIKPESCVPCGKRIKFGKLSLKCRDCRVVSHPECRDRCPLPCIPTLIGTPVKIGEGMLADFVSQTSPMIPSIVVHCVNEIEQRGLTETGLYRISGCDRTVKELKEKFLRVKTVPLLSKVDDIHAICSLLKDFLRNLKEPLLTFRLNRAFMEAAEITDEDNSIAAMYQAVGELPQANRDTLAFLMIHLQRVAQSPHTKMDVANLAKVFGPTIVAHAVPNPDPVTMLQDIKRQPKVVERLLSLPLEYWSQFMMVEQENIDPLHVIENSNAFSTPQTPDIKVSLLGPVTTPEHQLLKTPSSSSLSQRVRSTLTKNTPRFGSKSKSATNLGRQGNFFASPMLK
# Cytochrome P450 2D6 = Cytochrome P450 2D6 (Homo sapiens, UniProt P10635);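 note: CYP2D6 member of a cytochrome P450 panel assay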
# Cytochrome P450 2D6, sequence (P10635 whole entry): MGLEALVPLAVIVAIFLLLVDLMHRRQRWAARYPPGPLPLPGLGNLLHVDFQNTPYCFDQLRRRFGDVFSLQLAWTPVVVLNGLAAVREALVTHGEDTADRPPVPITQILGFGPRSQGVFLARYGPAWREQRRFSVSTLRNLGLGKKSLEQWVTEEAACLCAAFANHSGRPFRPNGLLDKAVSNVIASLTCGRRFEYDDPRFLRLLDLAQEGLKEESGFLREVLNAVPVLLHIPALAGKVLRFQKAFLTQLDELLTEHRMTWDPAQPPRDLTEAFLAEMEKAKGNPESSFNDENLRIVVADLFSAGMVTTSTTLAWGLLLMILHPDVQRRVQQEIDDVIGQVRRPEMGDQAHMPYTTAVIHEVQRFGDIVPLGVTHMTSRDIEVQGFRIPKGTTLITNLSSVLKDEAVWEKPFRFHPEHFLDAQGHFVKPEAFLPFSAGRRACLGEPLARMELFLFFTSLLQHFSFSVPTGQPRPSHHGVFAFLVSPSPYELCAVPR
# Cytochrome P450 3A4 = Cytochrome P450 3A4 (Homo sapiens, UniProt P08684);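 note: CYP3A4 tested as one member of a cytochrome P450 panel screen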
# Cytochrome P450 3A4, sequence (P08684 whole entry): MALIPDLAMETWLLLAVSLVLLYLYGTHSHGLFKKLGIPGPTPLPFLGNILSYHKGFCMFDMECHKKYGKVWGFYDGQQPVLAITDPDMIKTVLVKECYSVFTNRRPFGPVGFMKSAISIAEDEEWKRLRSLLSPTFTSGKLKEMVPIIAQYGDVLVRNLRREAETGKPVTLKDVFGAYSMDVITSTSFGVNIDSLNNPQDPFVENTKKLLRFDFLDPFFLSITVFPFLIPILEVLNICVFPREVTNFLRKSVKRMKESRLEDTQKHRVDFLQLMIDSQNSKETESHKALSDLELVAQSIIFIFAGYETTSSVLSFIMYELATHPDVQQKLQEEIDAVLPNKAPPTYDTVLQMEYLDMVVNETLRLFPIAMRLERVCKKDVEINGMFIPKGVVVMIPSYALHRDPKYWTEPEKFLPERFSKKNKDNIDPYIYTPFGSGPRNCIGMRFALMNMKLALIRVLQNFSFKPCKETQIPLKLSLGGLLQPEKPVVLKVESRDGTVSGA
# Cytochrome P450 2C19 = Cytochrome P450 2C19 (Homo sapiens, UniProt P33261); test: Cytochrome panel assay with activity outcomes. Panel member name: p450-cyp2c19 Compounds with AC50 equal or less than 10 uM are considered active; format: functional
# Cytochrome P450 2C19, sequence (P33261 whole entry): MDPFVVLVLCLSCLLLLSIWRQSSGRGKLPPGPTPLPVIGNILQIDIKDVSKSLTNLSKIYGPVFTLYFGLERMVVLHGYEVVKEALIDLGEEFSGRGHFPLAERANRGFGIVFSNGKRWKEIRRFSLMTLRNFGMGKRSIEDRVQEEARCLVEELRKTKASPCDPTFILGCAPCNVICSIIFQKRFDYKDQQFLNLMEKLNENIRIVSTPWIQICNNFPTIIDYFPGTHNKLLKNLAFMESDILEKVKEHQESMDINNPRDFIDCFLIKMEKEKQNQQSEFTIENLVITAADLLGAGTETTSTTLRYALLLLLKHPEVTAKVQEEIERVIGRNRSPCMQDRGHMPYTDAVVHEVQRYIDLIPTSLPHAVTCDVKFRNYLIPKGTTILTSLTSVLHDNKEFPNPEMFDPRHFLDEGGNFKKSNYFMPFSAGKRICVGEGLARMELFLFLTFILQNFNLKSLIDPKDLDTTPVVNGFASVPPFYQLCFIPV
# [15] = target: Glutathione-S-transferase (Schistosoma japonicum, UniProt Q26513); test: biotin-GST/anti-GST TR-FRET signal inhibitors, dose response, artefact control for Vif-APOBEC3G degradation inhibitor project, biochemical (AID 1117362); format: functional
# Glutathione-S-transferase, sequence (Q26513 whole entry): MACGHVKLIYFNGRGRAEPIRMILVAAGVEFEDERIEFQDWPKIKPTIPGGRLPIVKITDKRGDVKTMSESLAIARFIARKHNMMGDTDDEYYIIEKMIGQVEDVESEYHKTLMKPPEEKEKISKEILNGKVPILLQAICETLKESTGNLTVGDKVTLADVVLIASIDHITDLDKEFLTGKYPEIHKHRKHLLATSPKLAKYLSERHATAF
smiles,measurement,setting,value
Nc1cc2nn(-c3ccccc3)nc2cc1Cl,AC50,Caspase-6,2 µM (active)
same,AC50,[1],16.5 µM (active)
same,IC50,[2],> 67.5 µM (inactive)
same,EC50,Protein RecA,3.48 µM (active)
same,AC50,Caspase-9,29.9 µM (active)
same,AC50,Caspase-8,12.7 µM (active)
same,IC50,[3],> 50 µM (not active)
same,EC50,[4],> 67.5 µM (inactive)
CC(C)CNc1nc(-c2ccccc2)nc2ccccc12,IC50,[5],14.5 µM (active)
same,IC50,[6],58.5 µM (inactive)
CC(C)CSc1oc(-c2ccco2)nc1S(=O)(=O)c1ccccc1,IC50,[7],> 109 µM (inactive)
same,IC50,[8],> 83.3 µM (inactive)
O=C(Nc1ccc(S(=O)(=O)N2CCCC2)cc1)C1CC(=O)N(c2ccccc2)C1 (stereo not drawn),IC50,[7],> 109 µM (inactive)
same,IC50,[8],> 83.3 µM (inactive)
Clc1cccc(-c2cc(NCCCN3CCCCC3)c3ccccc3n2)c1,IC50,[5],1.12 µM (active)
same,IC50,[6],1.85 µM (active)
Cc1cc(C)n(-c2nc(NCC(C)O)c3c4c(sc3n2)CCCC4)n1 (stereo not drawn),IC50,[9],15 µM (active)
CCNC1=NC(c2ccccc2C(F)(F)F)C(C(=O)OC)=C(C)N1Cc1ccc(C(F)(F)F)cc1 (stereo not drawn),IC50,[10],> 96.6 µM (inactive)
O=C(NC(=S)Nc1cc(C(F)(F)F)ccc1N1CCOCC1)c1ccco1,EC50,[11],4.72 µM (active)
COc1cc(/C=N/NC2=NC(=O)C(c3ccccc3)S2)ccc1O (stereo not drawn),IC50,[12],> 100 µM (active)
same,AC50,[13],0.249 µM (active)
same,IC50,[14],44.3 µM (active)
C=CCn1c(C)c(C(C)=O)c(N2CCN(c3ccccc3)CC2)nc1=S,AC50,Cytochrome P450 2D6,22.4 µM (inconclusive)
same,AC50,Cytochrome P450 3A4,25.1 µM (inconclusive)
same,AC50,Cytochrome P450 2C19,5.62 µM (inconclusive)
same,IC50,[15],19.8 µM (active)
COc1ccc(OC)c(NC(=O)C(=O)NNC(=O)c2cccs2)c1,EC50,[11],3.5 µM (active)
COC(=O)C1=C(C)N(Cc2ccc(C(F)(F)F)cc2)C(NCc2ccc3c(c2)OCO3)=NC1c1ccccc1C(F)(F)F (stereo not drawn),IC50,[10],> 96.6 µM (inactive)
